Results: the NIST ThermoML archive (doi:10.1016/j.fluid.2018.07.012)

Conditions: Fluid (supercritical or subcritical phases), Dynamic light scattering

O=C=O [carbon dioxide]
Conditions	thermal diffusivity [m2/s]
293.55 K, 10990 kPa	4.54e-08
295.33 K, 8060 kPa	3.64e-08
295.4 K, 10050 kPa	4.04e-08
297.27 K, 7520 kPa	2.9e-08
297.45 K, 7000 kPa	2.67e-08
302.29 K, 11020 kPa	3.74e-08
302.43 K, 8030 kPa	2.25e-08
302.5 K, 8980 kPa	2.81e-08
303.34 K, 10000 kPa	3.28e-08
305.32 K, 7050 kPa	3.23e-08
305.77 K, 7510 kPa	1.22e-08
307 K, 8060 kPa	8.8e-09
307.3 K, 9050 kPa	2.14e-08
307.42 K, 10540 kPa	2.76e-08
312.35 K, 8020 kPa	2.68e-08
312.44 K, 9010 kPa	9.3e-09
313.93 K, 10020 kPa	1.71e-08
314.2 K, 11020 kPa	2.66e-08
316.1 K, 7000 kPa	6.47e-08
316.65 K, 7490 kPa	5.72e-08
317.11 K, 9010 kPa	1.99e-08
317.19 K, 10190 kPa	1.4e-08
317.56 K, 8000 kPa	4.32e-08
322.67 K, 10290 kPa	2.13e-08
323.48 K, 11000 kPa	1.97e-08
324.73 K, 9080 kPa	4.26e-08
324.99 K, 8160 kPa	6.12e-08
326.51 K, 7010 kPa	8.98e-08
326.93 K, 7480 kPa	7.92e-08
328.26 K, 11000 kPa	2.63e-08
333.11 K, 11010 kPa	3.22e-08
333.51 K, 9020 kPa	6e-08
333.97 K, 8140 kPa	8.06e-08
334.01 K, 10320 kPa	4.36e-08
336.92 K, 7000 kPa	1.08e-07
337.46 K, 7510 kPa	1.02e-07
343.12 K, 8000 kPa	9.67e-08
343.7 K, 9050 kPa	7.77e-08
343.72 K, 10060 kPa	6.38e-08
343.95 K, 10970 kPa	5.2e-08
345.99 K, 11010 kPa	5.38e-08
346.99 K, 7020 kPa	1.31e-07
347.28 K, 7500 kPa	1.17e-07
353.14 K, 10270 kPa	7.34e-08
353.95 K, 9020 kPa	9.9e-08
354.57 K, 8000 kPa	1.15e-07
356.06 K, 11030 kPa	7.11e-08
357.15 K, 7030 kPa	1.46e-07
357.37 K, 7500 kPa	1.37e-07
363.07 K, 10000 kPa	8.99e-08
363.43 K, 9020 kPa	1.07e-07
364.02 K, 8020 kPa	1.31e-07
365.89 K, 11050 kPa	8.37e-08
367.01 K, 7010 kPa	1.62e-07
367.19 K, 7600 kPa	1.54e-07
373.34 K, 10090 kPa	1.04e-07
373.59 K, 9010 kPa	1.24e-07
374.62 K, 8010 kPa	1.49e-07
375.92 K, 11040 kPa	9.69e-08
377.05 K, 7040 kPa	1.82e-07
377.25 K, 7480 kPa	1.75e-07
382.51 K, 10040 kPa	1.23e-07
383.53 K, 8040 kPa	1.66e-07
383.71 K, 9020 kPa	1.41e-07
385.64 K, 10990 kPa	1.15e-07
386.8 K, 7480 kPa	1.87e-07
386.82 K, 7010 kPa	2.09e-07
392.06 K, 10550 kPa	1.32e-07
393.82 K, 9040 kPa	1.57e-07
394.36 K, 7960 kPa	1.89e-07
395.37 K, 11030 kPa	1.23e-07
396.68 K, 7010 kPa	2.2e-07
396.85 K, 7490 kPa	2.04e-07
402.64 K, 10200 kPa	1.45e-07
403.05 K, 9020 kPa	1.66e-07
403.62 K, 8070 kPa	1.98e-07
405.15 K, 11090 kPa	1.3e-07
406.44 K, 7020 kPa	2.38e-07
406.5 K, 7500 kPa	2.2e-07
